# According to patent US12458630B2, “Combination therapy for cancer” (The Regents of the University of California, priority 2020, dated 2025):
# Experiments:
# MIA PaCa-2 cells [1] = assay: TMR-DEX macropinosome uptake assay; type: cell-based, human
# Protocol: Cell imaging. Immunostaining was performed as described^44. Cells were cultured on coverslips and fixed in 4% PFA for 10 min at room temperature. After washing twice in PBS, cells were incubated in PBS containing 10% FBS to block nonspecific sites of antibody adsorption. The cells were then incubated with the appropriate primary antibodies (diluted 1:100) and secondary antibodies (diluted 1:500) in PBS containing 10% FBS with or without 0.1% saponin. For cell macropinosome visualization, 24 hrs after seeding, the cells were serum starved for 18 hrs. Macropinosomes were marked using a high-molecular-mass (70 KD) TMR-Dextran (Invitrogen)-uptake assay, wherein TMR-DEX was added to serum-free medium at a final concentration of 1 mg/ml for 30 min at 37° C. At the end of the incubation period, the cells were rinsed five times in cold PBS and immediately fixed in 4% PFA. For tissue macropinosome visualization^45, fresh pancreata were cut into pieces with an approximate 5-mm cuboidal shape. A tissue section was placed in a 24-well plate and injected 150 μL of 10 mg/ml TMR-DEX solution directly into the tissue piece. Another 250 μL of diluted TMR-DEX solution were added to the well to immerse the tissue section. The plate was incubated in the dark for 15 min at room temperature. Then the tissue section was rinsed twice in PBS before embedding in O.C.T. compound in a prelabeled cryomold. Specimens were frozen on dry ice and stored at −80° C. for further processing. Immunostaining was performed as described above. Images were captured using a TCS SPE Leica confocal microscope (Leica, Germany).
# In some embodiments, Immunostaining was performed as described (Su et al., 2017). Cells were cultured on coverslips and fixed in 4% PFA for 10 min at room temperature or methanol for 10 min at −20° C. After washing twice in PBS, cells were incubated in PBS containing 10% FBS to block nonspecific sites of antibody adsorption. The cells were then incubated with the appropriate primary antibodies (diluted 1:100) and secondary antibodies (diluted 1:500) in PBS containing 10% FBS with or without 0.1% saponin. For cell macropinosome visualization, 24 hrs after seeding, the cells were serum starved for 18 hrs. Macropinosomes were marked using a high-molecular-mass (70 KDa) TMR-DEX (Invitrogen)-uptake assay, wherein TMR-DEX was added to serum-free medium at a final concentration of 1 mg/ml for 30 min at 37° C. At the end of the incubation period, the cells were rinsed five times in cold PBS and immediately fixed in 4% PFA. For tissue macropinosome visualization (Lee et al., 2019), fresh pancreata were cut into pieces with an approximate 5-mm cuboidal shape. Tissue fragments were placed in a 24-well plate and injected with 150 μL of 10 mg/ml TMR-DEX solution. Another 250 μL of diluted TMR-DEX solution were added to the well to immerse the tissue fragment. The plate was incubated in the dark for 15 min at room temperature. Then the tissue fragments were rinsed twice in PBS before embedding in O.C.T. compound in a prelabeled cryomold. Specimens were frozen on dry ice and stored at −80° C. for further processing. Immunostaining was performed as described above. Images were captured using a TCS SPE Leica confocal microscope (Leica, Germany).
# Quantification and statistics. To quantify the number of LC3 puncta, a total of 30 cells were recorded and analyzed using the LAS X measurement program on the TCS SPE Leica. Macropinosomes were quantified by using the ‘Analyze Particles’ feature in ImageJ (National Institutes of Health). Macropinocytic uptake index was computed by determining the total macropinosome area in relation to the total cell area for each field and then by determining the average across all the fields (at least 6 fields). These measurements were done on randomly-selected fields of view. Two-tailed unpaired Student's t test was performed for statistical analysis using GraphPad Prism software. […]
# MIA PaCa-2 cells [2] = assay: LC3 puncta / LC3-LAMP1 immunofluorescence; type: cell-based, human; settings: MIA PaCa-2 cells, 10, 20, 40, 80 μM HCQ
# Protocol: Cell imaging. Immunostaining was performed as described^44. Cells were cultured on coverslips and fixed in 4% PFA for 10 min at room temperature. After washing twice in PBS, cells were incubated in PBS containing 10% FBS to block nonspecific sites of antibody adsorption. The cells were then incubated with the appropriate primary antibodies (diluted 1:100) and secondary antibodies (diluted 1:500) in PBS containing 10% FBS with or without 0.1% saponin. For cell macropinosome visualization, 24 hrs after seeding, the cells were serum starved for 18 hrs. Macropinosomes were marked using a high-molecular-mass (70 KD) TMR-Dextran (Invitrogen)-uptake assay, wherein TMR-DEX was added to serum-free medium at a final concentration of 1 mg/ml for 30 min at 37° C. At the end of the incubation period, the cells were rinsed five times in cold PBS and immediately fixed in 4% PFA. For tissue macropinosome visualization^45, fresh pancreata were cut into pieces with an approximate 5-mm cuboidal shape. […]
# Quantification and statistics. To quantify the number of LC3 puncta, a total of 30 cells were recorded and analyzed using the LAS X measurement program on the TCS SPE Leica. Macropinosomes were quantified by using the ‘Analyze Particles’ feature in ImageJ (National Institutes of Health). […]
# MIA PaCa-2 cells [3] = assay: Immunoblot of p62 and LC3 (autophagic degradation); type: cell-based, human; settings: MIA PaCa-2 cells, 10-40 μM HCQ
# Protocol: Autophagy Induction. […] For starvation, cells were incubated in starvation medium (20 mM HEPES pH 7.4, 140 mM NaCl, 1 mM CaC2, 1 mM MgCl2, and 1% BSA) for 1.5 or 2 hrs. For glucose starvation, cells were washed three times with PBS and incubated in glucose-free DMEM containing 10% dialyzed FBS for 4 hrs. Immunoblot and immunoprecipitation. Cells were harvested and lysed in RIPA buffer (50 mM Tris-HCl, pH 7.4, 150 mM NaCl, 1% Triton X-100, 1% Na deoxycholate, 0.1% SDS, 1 mM EDTA) supplemented with complete protease inhibitor cocktail. Proteins were resolved on SDS-polyacrylamide gels, and then transferred to a polyvinylidene difluoride membrane. After blocking with 5% (w/v) fat free milk, the membrane was stained with the corresponding primary antibodies followed by incubation with the appropriate secondary HRP-conjugated antibodies, and development with ECL. Immunoreactive bands were detected by automatic X-ray film processor or KwikQuant Imager.
# MIA PaCa-2 cells [4] = assay: Cell viability assay (CCK-8); type: cell-based, human
# Protocol: Cell viability assay. Cell viability was determined with Cell Counting Kit-8 assay (CCK-8 assay kit, Glpbio). Cells were plated in 96-well plates at a density of 3000 cells (MIA PaCa-2) or 1500 cells (KC6141) per well and incubated overnight prior to treatment. EIPA (10 μM), MRT68921 (600 nM) or erlotinib (2 μM, Sigma) were added to the wells for 72 and 96 hrs. Next, 10 μL of CCK-8 was added to each well. The optical density was read at 450 nm using a microplate reader (FilterMax F5, Molecular Devices, USA) at day 0, 1, 2, 3, and 4. For glutamine-deprivation assays, cells in 96-well plates were rinsed briefly in PBS and incubated in the 0.2 mM glutamine. Glutamine-free DMEM medium was supplemented with 0.2 mM glutamine in the presence of 10% dialysed FBS and 25 mM HEPES. For some conditions, the medium was supplemented with a final concentration of 2% BSA (Fraction V, fatty-acid-, nuclease and protease-free, Calbiochem). For all experiments, media were replaced every 24 hrs. Viable cell counts were obtained using CCK-8 assay described as above.
# (§1) In some embodiments, cells were plated in 96-well plates coated with or without ECM at a density of 3000 cells (MIA PaCa-2, 1444, 1305, COLO 357/FG) or 1500 cells (KC6141) per well and incubated overnight prior to treatment. EIPA (10.5 μM), IPI549 (600 nM), MBQ-167 (500 nM), MRT68921 (600 nM) or erlotinib (2 μM, Sigma), ML385 (10 μM, Sigma), HCQ (10 μM or 80 μM) or their combinations were added to the wells for 24, 72 or 96 hrs. Next, 10 μL of CCK-8 was added to each well. The optical density was read at 450 nm using a microplate reader (FilterMax F5, Molecular Devices, USA) at day 0, 1, 2, 3, and 4. For glutamine-deprivation assays, cells in 96-well plates were rinsed briefly in PBS and incubated in the 0.2 mM glutamine. Glutamine-free DMEM medium was supplemented with 0.2 mM glutamine in the presence of 10% dialyzed FBS and 25 mM HEPES. For glucose-deprivation assays, cells in 96-well plates were rinsed briefly in PBS and incubated in the 0.5 mM glucose. Glucose-free DMEM medium was supplemented with 0.5 mM glucose in the presence of 10% dialyzed FBS and 25 mM HEPES. For some conditions, the medium was supplemented with a final concentration of 2% BSA (Fraction V, fatty-acid-, nuclease and protease-free, Calbiochem). For all experiments, media were replaced every 24 hrs. Viable cell counts were obtained using CCK-8 assay described as above.
# BxPC3 cells = assay: TMR-DEX macropinosome uptake assay; type: cell-based, human; settings: WT and IKKα KO BxPC3 cells (WT KRAS), ML385 10 μM, 24 hrs
# Protocol: Cell imaging. […] Cells were cultured on coverslips and fixed in 4% PFA for 10 min at room temperature. After washing twice in PBS, cells were incubated in PBS containing 10% FBS to block nonspecific sites of antibody adsorption. The cells were then incubated with the appropriate primary antibodies (diluted 1:100) and secondary antibodies (diluted 1:500) in PBS containing 10% FBS with or without 0.1% saponin. For cell macropinosome visualization, 24 hrs after seeding, the cells were serum starved for 18 hrs. […] At the end of the incubation period, the cells were rinsed five times in cold PBS and immediately fixed in 4% PFA. For tissue macropinosome visualization^45, fresh pancreata were cut into pieces with an approximate 5-mm cuboidal shape. […]
# In some embodiments, to quantify LC3 puncta or LC3-LAMP1 co-localization, a total of 30 cells were recorded and analyzed using the LAS X measurement program on the TCS SPE Leica. Macropinosomes were quantified by using the ‘Analyze Particles’ feature in Image J (National Institutes of Health). […]
# [5] = test system: 1305 primary human PDAC cells; assay: Cell viability assay (CCK-8); type: cell-based; settings: IKKα^low 1305 cells, 3 days
# Protocol: as §1
# MP-related proteins = assay: Immunoblot of MP-related proteins in BxPC3 cells; type: cell-based, human; settings: WT and IKKα KO BxPC3 cells, ML385 10 μM, 24 hrs
# Protocol: Immunoblot and immunoprecipitation. Cells were harvested and lysed in RIPA buffer (50 mM Tris-HCl, pH 7.4, 150 mM NaCl, 1% Triton X-100, 1% Na deoxycholate, 0.1% SDS, 1 mM EDTA) supplemented with complete protease inhibitor cocktail. Proteins were resolved on SDS-polyacrylamide gels, and then transferred to a polyvinylidene difluoride membrane. After blocking with 5% (w/v) fat free milk, the membrane was stained with the corresponding primary antibodies followed by incubation with the appropriate secondary HRP-conjugated antibodies, and development with ECL. Immunoreactive bands were detected by automatic X-ray film processor or KwikQuant Imager.
Structure (SMILES),"disruption of MP (MIA PaCa-2 cells [1]; 10 μM HCQ, inferred from lack of synergy with MRT68921)","degradation of MP (DQ-BSA in TMR-DEX macropinosomes) (MIA PaCa-2 cells [1]; MIA PaCa-2 cells, 10, 20, 40, 80 μM HCQ)","MP (TMR-DEX and DQ-BSA co-localization, MP-related protein expression) (MIA PaCa-2 cells [1]; MIA PaCa-2 cells, 10-40 μM HCQ)","MP inhibition (MIA PaCa-2 cells [1]; MIA PaCa-2 cells, HCQ 10-80 μM)",LC3-LAMP1 colocalization (MIA PaCa-2 cells [2]),"autophagic degradation (LC3-II, p62, lysosomal LC3 retention) (MIA PaCa-2 cells [3])",synergy in growth inhibition with EIPA or ML385 (MIA PaCa-2 cells [4]; HCQ 10 μM combined with EIPA or ML385),synergy in growth inhibition with MRT68921 (MIA PaCa-2 cells [4]; HCQ 10 μM combined with MRT68921),"cell growth (MIA PaCa-2 cells [4]; WT and IKKα^Δ MIA PaCa-2 cells, 80 μM HCQ, 3 days)","cell viability (total viable cells relative to vehicle) (MIA PaCa-2 cells [4]; WT and IKKα^Δ MIA PaCa-2 cells, 10 or 80 μM HCQ, 3 days)",TMR-DEX uptake increased by IKKα ablation (BxPC3 cells),sensitivity to single agent (cell viability) [5],MP-related protein expression increased by IKKα ablation (MP-related proteins)
"CCN(CCO)CCCC(C)Nc1ccnc2cc(Cl)ccc12 (stereo not shown) [HCQ, hydroxychloroquine]",barely disrupted MP,"induced the degradation of MP at 10 μM, 20 μM, 40 μM, but not at 80 μM",stimulated MP,inhibited MP only at 80 μM,enhanced LC3-LAMP1 colocalization in a concentration-dependent manner,inhibited autophagic degradation,synergized,did not synergize,inhibited cell growth,suppression of cell viability,–,–,–
Cc1ccccc1C(=O)N1CCc2cc(-c3nc(NC(=O)Cc4ccc5c(c4)OCO5)sc3C)ccc21 [ML385],–,–,–,–,–,–,–,–,–,–,blocked this effect,very sensitive,blocked this effect
